The results in this text go back to PubChem BioAssay AID248 (DTP/NCI, 2004).

SMILES strings stand for the structures. Several values for one entry are separate records, joined by “and”; a condition that tells them apart may be missing. Equal values may be shown once. Inconclusive results and toxic doses are left out.

In the assay the test system is L1210 leukemia ip in BDF1 mice, survival T/C. In words: NCI In Vivo Anticancer Drug Screen. Data for tumor model L1210 Leukemia (intraperitoneal) in B6D2F1 (BDF1) mice. To be noted: endpoint: mean survival time, higher = longer survival. The method, boiled down: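 Each compound was tested against a transplantable tumor grown in mice. The endpoint was survival, with treated animals benchmarked against vehicle controls as a simple ratio.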

Setting [1] is: dose: 100.0 mg/kg/injection, schedule: Q01DX009 (ip), vehicle: saline with Tween-80.
Setting [2] is: dose: 200.0 mg/kg/injection, schedule: Q01DX009 (ip), vehicle: saline with Tween-80.
The mark [3] stands for this setting: dose: 100.0 mg/kg/injection, schedule: Q01DX009 (ip), vehicle: Klucel (hydroxypropylcellulose) (HPC).
Setting [4] is: dose: 100.0 mg/kg/injection, schedule: Q04DX003 (ip), vehicle: Klucel (hydroxypropylcellulose) (HPC).
Setting [5] is: dose: 200.0 mg/kg/injection, schedule: Q01DX009 (ip), vehicle: Klucel (hydroxypropylcellulose) (HPC).
[6] abbreviates: dose: 200.0 mg/kg/injection, schedule: Q04DX003 (ip), vehicle: Klucel (hydroxypropylcellulose) (HPC).
Where [7] appears, read: dose: 400.0 mg/kg/injection, schedule: Q01DX009 (ip), vehicle: Klucel (hydroxypropylcellulose) (HPC).
Where [8] appears, read: dose: 400.0 mg/kg/injection, schedule: Q04DX003 (ip), vehicle: Klucel (hydroxypropylcellulose) (HPC).
Setting [9] is: dose: 100.0 mg/kg/injection, schedule: Q01DX001 (ip), vehicle: saline.
The mark [10] stands for this setting: dose: 200.0 mg/kg/injection, schedule: Q01DX001 (ip), vehicle: saline.
[11] abbreviates: dose: 400.0 mg/kg/injection, schedule: Q01DX001 (ip), vehicle: saline.
Setting [12] is: dose: 100.0 mg/kg/injection, schedule: Q04DX003 (ip), vehicle: acetone.
Where [13] appears, read: dose: 200.0 mg/kg/injection, schedule: Q04DX003 (ip), vehicle: acetone.
[14] abbreviates: dose: 400.0 mg/kg/injection, schedule: Q04DX003 (ip), vehicle: acetone.
[15] abbreviates: dose: 100.0 mg/kg/injection, schedule: Q04DX003 (ip), vehicle: saline with Tween-80.
Setting [16] is: dose: 200.0 mg/kg/injection, schedule: Q04DX003 (ip), vehicle: saline with Tween-80.
The mark [17] stands for this setting: dose: 400.0 mg/kg/injection, schedule: Q04DX003 (ip), vehicle: saline with Tween-80.
[18] abbreviates: dose: 100.0 mg/kg/injection, schedule: Q01DX001 (ip), vehicle: Klucel (hydroxypropylcellulose) (HPC).
Where [19] appears, read: dose: 400.0 mg/kg/injection, schedule: Q01DX001 (ip), vehicle: Klucel (hydroxypropylcellulose) (HPC).
[20] abbreviates: dose: 400.0 mg/kg/injection, schedule: Q01DX009 (ip), vehicle: saline with Tween-80.
Where [21] appears, read: dose: 100.0 mg/kg/injection, schedule: Q01DX009 (ip), vehicle: gum acacia.
Setting [22] is: dose: 100.0 mg/kg/injection, schedule: Q04DX003 (ip), vehicle: gum acacia.
Setting [23] is: dose: 200.0 mg/kg/injection, schedule: Q01DX009 (ip), vehicle: gum acacia.
[24] abbreviates: dose: 200.0 mg/kg/injection, schedule: Q04DX003 (ip), vehicle: gum acacia.
[25] abbreviates: dose: 400.0 mg/kg/injection, schedule: Q01DX009 (ip), vehicle: gum acacia.
Where [26] appears, read: dose: 400.0 mg/kg/injection, schedule: Q04DX003 (ip), vehicle: gum acacia.
[27] abbreviates: dose: 100.0 mg/kg/injection, schedule: Q01DX001 (ip), vehicle: carboxymethylcellulose (CMC).
[28] abbreviates: dose: 200.0 mg/kg/injection, schedule: Q01DX001 (ip), vehicle: carboxymethylcellulose (CMC).
Setting [29] is: dose: 400.0 mg/kg/injection, schedule: Q01DX001 (ip), vehicle: carboxymethylcellulose (CMC).

With `O=C(Nc1cccc(C(F)(F)F)c1)Nc1cccc2c1C(=O)c1ccccc1C2=O`, the T/C runs as follows: under setting [1], 88 % of control; under setting [2], 87 % of control.

Regarding `O=[N+]([O-])c1ccc2c(c1)C(C(Cl)(Cl)Cl)OC(C(Cl)(Cl)Cl)O2` (stereo not given), the T/C reads like this: under setting [3], 95 % of control; under setting [4], 96 % of control; under setting [5], 95 % of control; under setting [6], 93 % of control; under setting [7], 95 % of control; under setting [8], 95 % of control.

For the molecule `Cl[Si](Cc1ccccc1)(Cc1ccccc1)Cc1ccccc1`, the T/C is, setting by setting: under setting [9], 93 % of control; under setting [10], 88 % of control; under setting [11], 95 % of control.

As for `CC(=O)CC(=O)Nc1ccc(Cc2ccc(NC(=O)CC(C)=O)c(C)c2)cc1C`, the T/C reads like this: under setting [9], 88 % of control; under setting [10], 94 % of control; under setting [11], 94 % of control.

Turning to `CCC(=O)Oc1c(CC=C(C)C)c(OC(=O)CC)c2ccccc2c1OC(=O)CC`, the T/C reads like this: under setting [3], 93 % of control; under setting [4], 90 % of control; under setting [5], 93 % of control; under setting [6], 94 % of control; under setting [7], 88 % of control; under setting [8], 96 % of control.

On to `CC1COCC(C)OCO1` (stereo not given), for which the T/C (dose: 50.0 mg/kg/injection, schedule: Q01DX009 (ip), vehicle: acetone) is 102 % of control; the T/C (dose: 100.0 mg/kg/injection, schedule: Q01DX009 (ip), vehicle: acetone) is 102 % of control; the T/C under setting [12] was 103 % of control; the T/C (dose: 200.0 mg/kg/injection, schedule: Q01DX009 (ip), vehicle: acetone) is 101 % of control; the T/C under setting [13] was 94 % of control; the T/C under setting [14] was 114 % of control.

As to `NC(=O)N/N=C1\CC2C=CCC12` (stereo not given), the T/C is 94 % of control under setting [15], 92 % of control under setting [16] and 108 % of control under setting [17].

As for `NC(=O)c1[nH]cnc1/N=N/N(CCCl)Cc1ccccc1`, the T/C reads like this: under setting [18], 111 % of control; under setting [3], 255 % of control; under setting [4], 123 % of control; (dose: 133.0 mg/kg/injection, schedule: Q01DX001 (ip), vehicle: Klucel (hydroxypropylcellulose) (HPC)) 120 % of control; under setting [5], 164 % of control; under setting [6], 221 % of control. The T/C by setting is: under setting [19], 174 % of control and 195 % of control; under setting [7], 117 % of control; under setting [8], 296 % of control.

As to `O=c1cc(-c2cccs2)ss1`, the T/C by setting is: under setting [1], 89 % of control; under setting [15], 102 % of control; under setting [2], 105 % of control; under setting [16], 94 % of control; under setting [20], 86 % of control; under setting [17], 104 % of control.

As for `COC(=O)c1ccc(Cn2cnc3ncnc(Cl)c32)cc1`, the T/C under setting [4] is 92 % of control, the T/C under setting [6] was 91 % of control and the T/C under setting [8] was 105 % of control.

In the case of `Nc1nc(N)c(CCc2ccccc2)c(=O)[nH]1`, the T/C runs as follows: under setting [15], 100 % of control; under setting [16], 94 % of control; under setting [17], 94 % of control.

Consider `O=c1oc2ccccc2c(O)c1Cc1c(O)c2ccccc2oc1=O`, for which the T/C (dose: 12.5 mg/kg/injection, schedule: Q01DX009 (ip), vehicle: Klucel (hydroxypropylcellulose) (HPC)) is 99 % of control; the T/C (dose: 25.0 mg/kg/injection, schedule: Q01DX009 (ip), vehicle: Klucel (hydroxypropylcellulose) (HPC)) is 86 % of control; the T/C (dose: 50.0 mg/kg/injection, schedule: Q01DX009 (ip), vehicle: Klucel (hydroxypropylcellulose) (HPC)) is 86 % of control and 92 % of control.

`O=C(O)C1c2ccccc2-c2ccccc21`: the T/C is 113 % of control under setting [9], 91 % of control under setting [10] and 101 % of control under setting [11].

In the case of `CN1C(c2ccccc2)NC(=O)C12CCN(CCCC(=O)c1ccccc1)CC2` (stereo not given), the T/C is, setting by setting: under setting [18], 100 % of control; (dose: 200.0 mg/kg/injection, schedule: Q01DX001 (ip), vehicle: Klucel (hydroxypropylcellulose) (HPC)) 96 % of control; under setting [19], 100 % of control.

Regarding `N/N=C/NN=C(N)N`, the T/C reads like this: (dose: 15.0 mg/kg/injection, schedule: Q01DX Z (ip), vehicle: saline) 97 % of control; (dose: 30.0 mg/kg/injection, schedule: Q01DX Z (ip), vehicle: saline) 107 % of control; (dose: 60.0 mg/kg/injection, schedule: Q01DX Z (ip), vehicle: saline) 100 % of control; (dose: 120.0 mg/kg/injection, schedule: Q01DX Z (ip), vehicle: saline) 100 % of control; (dose: 120.0 mg/kg/injection, schedule: Q01DX Z (oral), vehicle: saline) 114 % of control.

Regarding `CC(=O)c1cccc(F)n1`, the T/C (dose: 100.0 mg/kg/injection, schedule: Q04DX002 (ip), vehicle: Klucel (hydroxypropylcellulose) (HPC)) was 93 % of control; the T/C (dose: 200.0 mg/kg/injection, schedule: Q04DX002 (ip), vehicle: Klucel (hydroxypropylcellulose) (HPC)) was 110 % of control; the T/C (dose: 400.0 mg/kg/injection, schedule: Q04DX002 (ip), vehicle: Klucel (hydroxypropylcellulose) (HPC)) was 100 % of control.

Consider `CC1(C(=O)O)CC(Cl)=CCC1C(=O)O` (stereo not given), for which the T/C runs as follows: (dose: 100.0 mg/kg/injection, schedule: Q01DX001 (ip), vehicle: steriod suspending solution) 105 % of control; (dose: 200.0 mg/kg/injection, schedule: Q01DX001 (ip), vehicle: steriod suspending solution) 103 % of control; (dose: 400.0 mg/kg/injection, schedule: Q01DX001 (ip), vehicle: steriod suspending solution) 97 % of control.

As for `CC(=O)Nc1ccc2ccccc2c1-c1c(N)ccc2ccccc12`, the T/C is 91 % of control under setting [21]; 97 % of control under setting [22]; 96 % of control under setting [23]; 92 % of control under setting [24]; 99 % of control under setting [25]; 101 % of control under setting [26].

As to `O=C(Nc1cccc(C(F)(F)F)c1)Nc1ccc(Cl)c(Cl)c1`, the T/C is 96 % of control (dose: 50.0 mg/kg/injection, schedule: Q01DX001 (ip), vehicle: carboxymethylcellulose (CMC)); 102 % of control under setting [27]; 98 % of control under setting [28]; 113 % of control under setting [29].

In the case of `Cc1ccc(S(=O)(=O)N(C)c2cc(Cl)c(C(=O)O)cc2Cl)cc1`, the T/C by setting is: under setting [12], 90 % of control; under setting [13], 93 % of control; under setting [14], 90 % of control.

In the case of `O=C1/C(=N/O)CCCc2ccccc21`, the T/C reads like this: under setting [27], 103 % of control; under setting [28], 97 % of control; under setting [29], 103 % of control.

On to `Cc1cc(Cl)ccc1NC(=O)Nc1ccccc1`, for which the T/C was 87 % of control under setting [21]; 87 % of control under setting [22]; 89 % of control under setting [23]; 89 % of control under setting [24]; 87 % of control under setting [25]; 90 % of control under setting [26].

`C=C(C)COC(N)=O`: the T/C is, setting by setting: under setting [1], 95 % of control; under setting [15], 102 % of control; under setting [2], 96 % of control; under setting [16], 102 % of control; under setting [20], 91 % of control; under setting [17], 103 % of control.

On to `Cc1cc(C)c(C(=O)OCCN(C)C)c(C)c1`, for which the T/C was 110 % of control (dose: 75.0 mg/kg/injection, schedule: Q01DX001 (ip), vehicle: saline) and 98 % of control (dose: 150.0 mg/kg/injection, schedule: Q01DX001 (ip), vehicle: saline).
